System: Plasmopara viticola
Assay: Vine downy mildew disease control, foliar spray on vines
Type: in vivo
Conditions: aqueous solution sprayed onto vines to run off, then inoculated with 100,000 spores per ml, compared with untreated plants
Description: Aqueous solutions of the compound of Example 1 were sprayed at various concentrations onto vines to run off using a hand-sprayer. Plants were then inoculated by hand spraying with a spore suspension of 100,000 spores per ml of Plasmopara viticola. For the purposes of comparison the vines were sprayed also with the commercially available propamocarb hydrochloride.
Plants were assessed for degree of disease control compared with untreated plants.

Row | Structure (SMILES) | % Control (rate 400 ppm) [%] | % Control (rate 800 ppm) [%]
1 | CCCOC(=O)NCCCN(C)C.CCO[PH](=O)O [Compound of invention, dimethyl-[3-(propoxycarbonylamino)propyl]ammonium O-ethylphosphonate] | 27.6 | 81.5
2 | CCCOC(=O)NCCCN(C)C.Cl [propamocarb hydrochloride, propyl 3-(dimethylamino)propylcarbamate hydrochloride] | 4.2 | 14.6

Reference: patent publication US6339103B1, “Fungicides” (Aventis CropScience UK Limited, priority 1998, dated 2002)
